Laboratory results from ChEMBL document CHEMBL3797063, “Evaluation of N-substituent structural variations in opioid receptor profile of LP1” (Bioorg Med Chem, 2016).
Calls of active or inactive are those of the source. The calls are words filed in the database; no cut-off is given here.

Experiments:
[1] = Selectivity index, ratio of Ki for human KOR to Ki for rat MOR
Mu-type opioid receptor [2] = biological target: Mu-type opioid receptor (Rattus norvegicus, UniProt P33535); assay: Displacement of [3H]-DPN from rat MOR expressed in EE-HEK293 cell membranes by liquid scintillation counting
[3] = biological target: Delta-type opioid receptor (Rattus norvegicus, UniProt P33533); assay: Displacement of [3H]-DPN from rat DOR expressed in EE-HEK293 cell membranes by liquid scintillation counting
[4] = biological target: T1, Kappa-type opioid receptor (Homo sapiens, UniProt P41145); assay: Displacement of [3H]-DPN from human KOR expressed in EE-HEK293 cell membranes by liquid scintillation counting
Rattus norvegicus = species on record: Rattus norvegicus; assay: Selectivity index, ratio of Ki for rat DOR to Ki for rat MOR
Mu-type opioid receptor [5] = biological target: T2, Mu-type opioid receptor (Cavia porcellus, UniProt P97266); assay: Agonist activity at MOR in Dunkin-Hartley guinea pig ileum assessed as inhibition of EFS-induced contractions incubated for 60 mins
[6] = biological target: Delta-type opioid receptor (Mus musculus) (UniProt P32300); assay: (§1) Agonist activity at DOR in CD1 mouse vas deferens assessed as inhibition of EFS-induced contractions incubated for 60 mins; type: tissue-based
[7] = biological target: T3, Delta-type opioid receptor (Mus musculus, UniProt P32300); assay: Antagonist activity at DOR in CD1 mouse vas deferens assessed as reduction in DPDPE-induced inhibition of EFS-evoked contractions incubated for 60 mins; type: tissue-based; conditions: read-out: pA2 (converted)
[8] = biological target: T1, Kappa-type opioid receptor; assay: Activity at human KOR expressed in EE-HEK293 cells assessed as pEC50 for effect on (-)U50,488H-induced response (reference value: […] +/- […]); type: cell-based
Mu-type opioid receptor [9] = biological target: T2, Mu-type opioid receptor; assay: Antagonist activity at MOR in Dunkin-Hartley guinea pig ileum assessed as reduction in DAMGO-induced inhibition of EFS-induced contractions incubated for 60 mins; type: tissue-based; conditions: read-out: pA2 (converted)
Mus musculus [10] = assay: Effect on basal tail flick latencies in Swiss […] mouse at 1 to 15 mg/kg, sc during 90 mins by tail flick test; type: ADME, organism-based; conditions: in vivo, 1.5 h
Mus musculus [11] = assay: Reduction in morphine-induced antinociceptive effect in sc dosed Swiss […] mouse assessed as tail flick latencies dosed 45 mins before 5 mg/kg, sc morphine injection by tail flick test; type: ADME, organism-based; conditions: in vivo, 0.75 h
[12] = biological target: T3, Delta-type opioid receptor; assay: as §1; type: tissue-based

T2 sequence (P97266 whole entry): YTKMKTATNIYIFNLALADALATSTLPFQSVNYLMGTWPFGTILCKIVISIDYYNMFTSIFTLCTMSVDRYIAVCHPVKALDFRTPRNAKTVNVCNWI
Sequence of Mu-type opioid receptor (Rattus norvegicus, UniProt P33535) (P33535 whole entry): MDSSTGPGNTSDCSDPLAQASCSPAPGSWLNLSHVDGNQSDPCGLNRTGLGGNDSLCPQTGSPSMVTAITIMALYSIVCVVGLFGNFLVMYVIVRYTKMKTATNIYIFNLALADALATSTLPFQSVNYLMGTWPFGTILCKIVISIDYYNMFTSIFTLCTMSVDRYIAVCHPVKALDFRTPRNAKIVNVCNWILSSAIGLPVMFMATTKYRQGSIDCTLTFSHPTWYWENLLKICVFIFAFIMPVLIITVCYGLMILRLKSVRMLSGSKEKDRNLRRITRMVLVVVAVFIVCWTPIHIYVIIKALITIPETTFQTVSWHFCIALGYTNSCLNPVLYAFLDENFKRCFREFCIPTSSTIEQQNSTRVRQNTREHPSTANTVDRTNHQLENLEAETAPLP
T3 sequence (P32300 whole entry): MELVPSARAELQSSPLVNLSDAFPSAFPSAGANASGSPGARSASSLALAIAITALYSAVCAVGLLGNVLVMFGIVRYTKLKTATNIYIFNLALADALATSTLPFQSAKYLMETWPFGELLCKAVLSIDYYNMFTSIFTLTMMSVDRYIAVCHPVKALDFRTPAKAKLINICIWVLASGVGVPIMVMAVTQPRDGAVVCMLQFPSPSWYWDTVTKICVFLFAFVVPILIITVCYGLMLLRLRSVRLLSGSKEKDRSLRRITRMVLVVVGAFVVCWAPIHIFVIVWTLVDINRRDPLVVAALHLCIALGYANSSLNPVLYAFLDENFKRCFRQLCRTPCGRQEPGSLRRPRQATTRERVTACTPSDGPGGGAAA
T1 sequence (P41145 whole entry): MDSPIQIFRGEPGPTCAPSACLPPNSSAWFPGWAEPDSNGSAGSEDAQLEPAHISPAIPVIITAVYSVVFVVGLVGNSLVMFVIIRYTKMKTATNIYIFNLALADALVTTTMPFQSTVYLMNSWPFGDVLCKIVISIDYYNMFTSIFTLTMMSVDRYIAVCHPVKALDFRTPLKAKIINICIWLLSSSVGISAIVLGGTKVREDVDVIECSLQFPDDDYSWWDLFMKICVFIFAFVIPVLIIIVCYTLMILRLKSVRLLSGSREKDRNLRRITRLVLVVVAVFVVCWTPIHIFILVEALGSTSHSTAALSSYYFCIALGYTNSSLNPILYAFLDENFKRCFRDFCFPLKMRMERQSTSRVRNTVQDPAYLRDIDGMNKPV
Sequence of Delta-type opioid receptor (Rattus norvegicus, UniProt P33533) (P33533 whole entry): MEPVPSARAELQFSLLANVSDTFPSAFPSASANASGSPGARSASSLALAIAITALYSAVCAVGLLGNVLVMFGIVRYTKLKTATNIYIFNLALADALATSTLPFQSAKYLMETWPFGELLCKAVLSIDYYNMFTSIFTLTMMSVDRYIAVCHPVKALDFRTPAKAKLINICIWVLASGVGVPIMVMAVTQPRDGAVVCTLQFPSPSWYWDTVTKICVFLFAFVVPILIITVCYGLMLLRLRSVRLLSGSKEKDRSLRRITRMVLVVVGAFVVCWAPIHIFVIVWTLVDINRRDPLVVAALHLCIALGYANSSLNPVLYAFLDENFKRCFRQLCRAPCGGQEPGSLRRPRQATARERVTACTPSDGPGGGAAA
Sequence of Delta-type opioid receptor (Mus musculus) (P32300 whole entry): as the sequence (P32300 whole entry) above

For `C[C@H]1[C@H]2Cc3ccc(O)cc3[C@]1(C)CCN2CCC(=O)Nc1cnc2ccccc2c1`, the Ratio Ki [1] was 5.4, the Ki (Mu-type opioid receptor [2]) was 1190 nM and the Ki [3] was 740 nM. The Ki [4] was 6470 nM and the Ratio Ki (Rattus norvegicus) was 0.62.
`C[C@@H](NC(=O)[C@@H](N)Cc1ccc(O)cc1)C(=O)NCC(=O)N(C)[C@@H](Cc1ccccc1)C(=O)NCCO` [DAMGO] gave an EC50 (Mu-type opioid receptor [5]) of 158 nM.
For `C[C@H]1[C@H]2Cc3ccc(O)cc3[C@]1(C)CCN2CCC(=O)Nc1cccc2ncccc12`, the Ratio Ki [1] was 0.5, the Ki (Mu-type opioid receptor [2]) was 3190 nM and the Ki [3] was 310 nM. For the same molecule, the Ki [4] was 1540 nM and the Ratio Ki (Rattus norvegicus) was 0.1.
For `C[C@H]1[C@H]2Cc3ccc(O)cc3[C@]1(C)CCN2CCC(=O)Nc1ccccc1`, the Ratio Ki [1] was 153, the Activity [6] was “inactive” and the Kb [7] was 63.1 nM. It also gave an EC50 (Mu-type opioid receptor [5]) of 794 nM and a Ratio Ki (Rattus norvegicus) of 0.67.
For `C[C@H]1[C@H]2Cc3ccc(O)cc3[C@]1(C)CCN2CCC(=O)Nc1cccc2ccccc12`, the Ratio Ki [1] was 21.1, the Activity [6] was “inactive” and the Kb [7] was 25.1 nM. For the same molecule, the Ki (Mu-type opioid receptor [2]) was 38 nM, the Ki [3] was 210 nM and the EC50 [8] was 10000 nM. For the same molecule, the Kb (Mu-type opioid receptor [9]) was 2.51 nM, the Ki [4] was 800 nM and the Activity (Mus musculus [10]) was “Non-toxic”. For the same molecule, the AD50 (Mus musculus [11]) was 2 mg/kg, the Activity (Mus musculus [11]) was “Dose-dependent effect” and the Ratio Ki (Rattus norvegicus) was 5.5.
For `C[C@H]1[C@H]2Cc3ccc(O)cc3[C@]1(C)CCN2CCC(=O)Nc1ccc2ncccc2c1`, the Ratio Ki [1] was 1, the Ki (Mu-type opioid receptor [2]) was 4560 nM and the Ki [3] was 330 nM. It also gave a Ki [4] of 4400 nM and a Ratio Ki (Rattus norvegicus) of 0.07.
`C[C@H]1[C@H]2Cc3ccc(O)cc3[C@]1(C)CCN2CCC(=O)Nc1cccc2cnccc12` showed a Ratio Ki [1] of 58, an EC50 [12] of 158000 nM and an EC50 (Mu-type opioid receptor [5]) of 20000 nM. The Ki (Mu-type opioid receptor [2]) was 50 nM, the Ki [3] was 180 nM and the Ki [4] was 2900 nM. It also gave a Ratio Ki (Rattus norvegicus) of 3.6.
Work on `C[C@H]1[C@H]2Cc3ccc(O)cc3[C@]1(C)CCN2CCC(=O)Nc1cccc2cccnc12` yielded a Ratio Ki [1] of 0.07, a Ki (Mu-type opioid receptor [2]) of 3410 nM and a Ki [3] of 540 nM. The Ki [4] was 230 nM and the Ratio Ki (Rattus norvegicus) was 0.16.
